Assay results as given in US20030073730A1, “Use of amino-isoxazolidone compounds for treatment of memory impairment following traumatic brain injury” (G.D. Searle & Co., priority 1994, published 2003).

Experiments:
[1] = target: T1, NMDA receptor complex, [3H]TCP binding to synaptic plasma membranes (Rattus norvegicus, UniProt P35439); experiment: Assay B: TCP Modulation Assay (stimulation of [3H]TCP binding); conditions: for effect on glycine dose-response of [3H]TCP binding: D-cycloserine 0-100 μM
T1 construct: Triton X-100 washed synaptic plasma membranes (SPM) prepared from rat forebrain; from tissue; host or cells: rat forebrain synaptic plasma membranes (male Sprague-Dawley, 30-45 days old), Triton X-100 washed
Protocol: [^3H]TCP binding was performed using Triton X-100 washed synaptic plasma membranes (SPM) prepared from rat forebrain (30-45 day old, male SpragueDawley; Sasco, St. Charles, Mo.) as described previously [J. W. Thomas, W. F. Hood, J. B. Monahan, P. C. Contreras and T. L. O'Donohue, Brain Res., 442, 396-398 (1988)]. […] The samples were then filtered through glass fiber filters (Schleicher and Schuell #32) which were pretreated with 0.05% (v/v) polyethylenimine. The filters were washed and the radioactivity quantitated by liquid scintillation spectrometry. […] The EC50 values for the stimulation of [^3H]TCP binding were determined using a four parameter logistic regression analysis.

[2] = test system: normal young and elderly human volunteers; conditions: single oral doses of 5 and 15 mg; cited from earlier work
[3] = test system: patients with post-traumatic memory impairment; experiment: Assay C: Post-Traumatic Memory Impairment Study (WMS and MAS); assay type: in vivo, human; parameters: MAS Visual Memory score, least-square mean corrected for baseline / MAS Visual Memory, mean change from baseline / WMS Logical Memory score, mean / WMS Visual Reproduction score, mean / MAS Visual Memory score, mean / MAS Short Term Memory score, mean / MAS Verbal Memory score, mean: scale not given here
Protocol: The primary objective of this pilot study was to assess in patients with post-traumatic memory impairment: 1) The effect of a single 15 mg dose of cycloserine using the Wechsler Memory Scale (WMS) [D. Wechsler, Wechsler Memory Scale, Manual., Psychological Corporation, New York (1945)]; and 2) The effect of 5 multiple doses of 15 mg of cycloserine over 72 hours using the Memory Assessment Scales (MAS) [J. M Williams, The Memory Assessment Scales., Pyschological Assessment Resources, Odessa, Fla. (1991)]. The secondary objective of this study was to evaluate the safety of cycloserine in patients with traumatic brain injury.
The study was conducted by six investigators at six investigational sites in the United States. This was a multicenter, randomized, doubleblind, parallel group, placebo-controlled study in headtrauma patients who were experiencing significant memory disorder. Patients were randomized to receive placebo or 15 mg doses of cycloserine for a total of five equally spaced doses (morning and evening) over a 72-hour period. Safety and efficacy measurements were obtained at the screening and on Days 1 through 4 of the study. A sufficient number of patients were enrolled in the study to assure that 60 evaluable patients (30 in the cycloserine treatment group and 30 in the placebo treatment group) would complete the study.
Patients considered for enrollment were to have sustained closed head injury (ICD-9-CM#800) and post-traumatic memory impairment established by clinical examination supported by the Hahnemann Orientation and Memory Examination (HOME) [J. M. Williams, In: C. J. Long, L. Ross and M. Mutchnick, eds. Traumatic Brain Injury, Plenum, N.Y. (1990)]. The Anterograde Amnesia score was to be between 0 and 21 inclusive and the patient was to have sufficient cognitive recovery to complete the Hahnemann Memory Screening Test (MST) with a score of at least 9 [J. M. Williams, Ibid.]. Patients were to be at least 18 years of age, weighing between 40 and 100 kg, and female patients could not be at risk of pregnancy. Patients were to have a stable medical condition following the traumatic injury and be judged by the investigator to have adequate nutritional status. [Patients could have other traumatic injuries provided they were under treatment and there was no clinically significant infection or general sepsis.]
Criteria for exclusion from the study included current or history of significant systemic disorder, brain disorder, or any neurological disorder with cognitive implications other than traumatic brain injury (e.g., brain tumor). Also excluded were patients with current or history of diagnosed epilepsy or documented convulsions, or clinically significant abnormalities of thyroid function, folic acid or B12. Clinically significant cardiovascular, renal, pulmonary, hepatic, gastrointestinal, infectious or hematological illness could preclude patient participation in the study (judgment of the Investigator). Concomitant medication, or medication given within seven days prior to the start of the study could preclude patient participation in the study (judgment of the Investigator and/or Clinical Monitor). Inability to follow study procedures, poor comprehension of study language, uncorrectable loss of hearing or eyesight which would interfere with study participation excluded patients from the study. Patients who had received an acridine derivative within 90 days prior to enrollment or another investigational drug within 30 days enrollment or who were known to have a hypersensitivity to cycloserine or related compounds were also excluded. This study also excluded patients taking or expected to take Hydergine, cerebral vasodilators, nootropics, choline, lecithin or amino acids. Clinically significant laboratory values outside the normal range or previous admission to the study excluded patients from participation in the study.
All study medication was provided by G. D. Searle & Co., Skokie, Ill. […]

elderly population = conditions: absence of scopolamine, single oral doses of 5 and 15 mg; cited from earlier work
[4] = test system: mentally disturbed patients; conditions: 500 mg per day; cited from earlier work

NCC(=O)O [Glycine]
maximum specific [3H]TCP binding ([1]; 0.6 μM glycine, basal binding 2583±381 DPM): 4712±779 DPM

NC1CONC1=O (single isomer, unassigned) [D-cycloserine, 4-amino-3-isoxazolidone]
effect on scopolamine-induced memory deficits [2]: can ameliorate some memory deficits induced by scopolamine | effect on glycine dose-response of [3H]TCP binding ([1]; glycine concentrations 0.1-15 μM): rightward shift in the dose-response curve | effect on glycine dose-response of [3H]TCP binding ([1]; glycine concentrations below 0.1 μM): potentiated the glycine stimulation | effect on glycine stimulation of [3H]TCP binding ([1]; in the presence of glycine 0.1-0.6 μM): reduces the maximal level of glycine stimulation | MAS Short Term Memory score, mean ([3]; Baseline): 81.7 | MAS Verbal Memory score, mean ([3]; Baseline): 78.2 | MAS Visual Memory score, mean ([3]; Baseline): 77.2 | WMS Logical Memory score, mean ([3]; Baseline, prior to first dose): 8.88 | WMS Visual Reproduction score, mean ([3]; Baseline, prior to first dose): 8.70 | WMS Logical Memory score, mean ([3]; Day 2, after one 15 mg dose): 8.24 | WMS Visual Reproduction score, mean ([3]; Day 2, after one 15 mg dose): 8.42 | WMS Visual Reproduction score corrected for baseline versus placebo ([3]; Day 2, one dose, p=0.59): did not differ significantly | WMS Logical Memory score corrected for baseline versus placebo ([3]; Day 2, one dose, p=0.72): did not differ significantly | MAS Short Term Memory score, mean ([3]; Day 4, after five 15 mg doses): 85.9 | MAS Verbal Memory score, mean ([3]; Day 4, after five 15 mg doses): 75.8 | MAS Visual Memory score, mean ([3]; Day 4, after five 15 mg doses): 85.5 | MAS Visual Memory score, least-square mean corrected for baseline ([3]; Day 4, five 15 mg doses, placebo 78.7): 87.5 | MAS Visual Memory, mean change from baseline ([3]; Day 4, five 15 mg doses, placebo −1.50): 8.54 | MAS Visual Memory score versus placebo ([3]; Day 4, p=0.023): significantly higher | MAS Verbal Memory versus placebo ([3]; Day 4, p=0.31): not significantly different | MAS Short Term Memory versus placebo ([3]; Day 4, p=0.72): not significantly different | effect on cognitive parameters (elderly population): significant positive effects on the cognitive parameters | clinical response in mental disorders [4]: improvements in depression, insomnia, anexoria or tension were found for some patients

c1csc(C2(N3CCCCC3)CCCCC2)c1 [[^3H]TCP]
Kd ([1]; basal conditions): 0.044 µM
